Laboratory results as given in patent US20210246109A1, “POTENT AND SELECTIVE INHIBITORS OF CYTOCHROME P450” (University of Kentucky Research Foundation, priority 2020, published 2021).
Several values for one entry are separate records, joined by “and”; a condition that tells them apart may be missing. Identical values can stand only once. Like-named read-outs stand apart in the source and are kept apart here.

What was measured:
[1] = system: HEK; experiment: Cytotoxicity, resazurin, 72 hours after compound addition; assay type: cell-based
Method: Cytotoxicity was assessed at 72 hours after compound addition using resazurin. The compounds that function as selective 1B1 inhibitors had no effect on cell health. This is an essential feature for any chemopreventative agent or molecules intended to block the detrimental action of an enzyme.

[2] = target: T1, CYP1A1 (Homo sapiens, UniProt P04798); experiment: EROD assay in CYP1A1 counter-screen cell line; assay type: cell-based; details: for SI 1B1:1A1: selectivity index
T1 construct: expressed in transfected cells
T1 sequence (P04798 1-512): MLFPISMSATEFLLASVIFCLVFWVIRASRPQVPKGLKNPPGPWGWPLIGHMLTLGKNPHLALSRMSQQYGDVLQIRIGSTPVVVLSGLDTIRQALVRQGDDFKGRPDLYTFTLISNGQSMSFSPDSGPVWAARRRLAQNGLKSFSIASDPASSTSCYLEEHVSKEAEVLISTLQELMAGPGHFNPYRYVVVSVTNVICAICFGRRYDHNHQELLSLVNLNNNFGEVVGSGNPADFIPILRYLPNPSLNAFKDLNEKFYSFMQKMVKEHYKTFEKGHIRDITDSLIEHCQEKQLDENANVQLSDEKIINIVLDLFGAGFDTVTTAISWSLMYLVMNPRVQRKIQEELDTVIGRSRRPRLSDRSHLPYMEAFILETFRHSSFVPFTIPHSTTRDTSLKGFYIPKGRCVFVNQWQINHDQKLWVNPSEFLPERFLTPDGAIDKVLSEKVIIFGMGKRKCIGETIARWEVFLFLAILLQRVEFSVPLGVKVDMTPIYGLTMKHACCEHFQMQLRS
Method: (§1) The activity of the inhibitors was assessed in a novel cell based assay generated for the purpose of this project. Enzymatic turnover of CYP1B1 was measured using the ethoxy-resorufin-O-deethylase (EROD) assay with the fluorescent substrate, resorufin ethyl ether. Cell lines were generated where the gene for CYP1B1 alone or CYP1B1 and cytochrome P450 reductase (CPR) were both under the control of an inducible promoter. A cell line was generated for counter screening where the gene for CYP1A1 was used. CYP1A1 is the closest family member to CYP1B1.

[3] = target: T2, pooled human liver microsomes (pHLMs) (Homo sapiens, UniProt P05177); experiment: EROD counterscreen in pooled human liver microsomes; assay type: biochemical; details: human, microsomes, Table 3; read-out: IC50 pHLM
T2 sequence (P05177 2-516): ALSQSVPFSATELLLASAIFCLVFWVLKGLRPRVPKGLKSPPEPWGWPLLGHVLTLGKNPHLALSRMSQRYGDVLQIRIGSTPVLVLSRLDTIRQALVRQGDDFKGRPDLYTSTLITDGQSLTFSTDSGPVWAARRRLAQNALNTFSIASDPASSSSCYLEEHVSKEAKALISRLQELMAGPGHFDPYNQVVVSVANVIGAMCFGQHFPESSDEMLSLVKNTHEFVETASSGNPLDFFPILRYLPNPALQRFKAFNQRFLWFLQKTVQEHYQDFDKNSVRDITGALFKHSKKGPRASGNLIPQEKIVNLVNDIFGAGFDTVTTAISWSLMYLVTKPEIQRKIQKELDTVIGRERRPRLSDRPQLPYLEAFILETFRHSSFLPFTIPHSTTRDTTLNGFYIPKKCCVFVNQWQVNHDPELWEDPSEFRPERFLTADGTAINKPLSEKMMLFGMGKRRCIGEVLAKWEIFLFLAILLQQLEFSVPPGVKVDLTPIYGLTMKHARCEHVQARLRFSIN
From the text: Human liver microsomes were used as a counterscreen to experimentally determine the magnitude of inhibitor selectivity.

[4] = target: T3, CYP1B1 (Homo sapiens, UniProt Q16678); experiment: EROD assay in inducible CYP1B1 cell line; assay type: cell-based
T3 construct: expressed in transfected cells
T3 sequence (Q16678 1-543): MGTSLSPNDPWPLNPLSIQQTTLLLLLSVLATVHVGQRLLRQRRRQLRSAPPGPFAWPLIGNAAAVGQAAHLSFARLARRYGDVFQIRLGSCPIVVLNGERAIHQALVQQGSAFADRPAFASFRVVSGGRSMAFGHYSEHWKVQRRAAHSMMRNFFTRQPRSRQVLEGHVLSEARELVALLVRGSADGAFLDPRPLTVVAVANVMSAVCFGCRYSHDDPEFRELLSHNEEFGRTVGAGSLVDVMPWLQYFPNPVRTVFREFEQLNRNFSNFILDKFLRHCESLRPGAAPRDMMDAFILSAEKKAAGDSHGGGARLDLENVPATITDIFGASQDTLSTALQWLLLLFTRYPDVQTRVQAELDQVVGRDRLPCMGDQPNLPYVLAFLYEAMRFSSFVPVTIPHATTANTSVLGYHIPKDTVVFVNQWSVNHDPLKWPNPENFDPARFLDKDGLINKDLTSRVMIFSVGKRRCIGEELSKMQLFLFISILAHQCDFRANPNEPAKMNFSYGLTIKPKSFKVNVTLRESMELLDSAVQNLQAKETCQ
Method: as §1

[5] = Table 1, 72 hours, resazurin, read-out: Cytotoxicity IC50
[6] = Table 3, HEK, read-out: HEK cytotoxicity
[7] = Table 2, EROD assay, read-out: IC50 CYP1B1
[8] = Table 2, EROD assay, read-out: IC50 CYP1A1

SMILES	IC50 ([2]; Table 3, read-out: IC50 1A1)	IC50 ([4]; Table 3, read-out: IC50 1B1)	other results
O=c1cc(-c2ccccc2)oc2c1ccc1ccccc12 [ANF, reference compound]	–	–	IC50 [1, 5]: > 10 µM; IC50 [1, 6]: > 10 µM
N#CCOc1ccc(-c2nc3ccccc3[nH]2)cc1 [GL523]	> 10 µM	–	HEK cell viability % at 10 μM ([1]; Table 3, HEK): 93.4%
COc1cc(-c2nc3ccc(I)cc3c(=O)[nH]2)ccc1OCC#N [GL551]	0.56 µM	< 0.00025 µM	IC50 [3]: > 3 µM
COc1ccc(-c2nc3ccccc3c(=O)n2CC#N)c(OC)c1 [GL519]	> 10 µM	0.97 µM	HEK cell viability % at 10 μM ([1]; Table 3, HEK): 88.7%
Cn1c(-c2ccc3ccccc3n2)nc2ccccc2c1=O [GL659]	> 10 µM	> 1 µM	–
Fc1ccc(-c2csc(-c3ccccn3)n2)cc1C(F)(F)F [GL666]	–	–	IC50 [4, 7]: 0.0838 µM; IC50 [2, 8]: 0.24 µM; SI 1B1:1A1 [2]: 2.86
N#CCOc1ccc(-c2nc3ccccc3c(=O)[nH]2)cc1OCC#N [GL546]	3.5 µM	0.0204 µM	–
COc1cc(C(=O)/C=C/c2ccc3ccccc3n2)cc(OC)c1OC [GL-713]	3 µM	0.55 µM	–
Oc1ccc(-c2nc(-c3ccc(F)c(C(F)(F)F)c3)cs2)cc1 [GL678]	–	–	IC50 [4, 7]: 0.208 µM; IC50 [2, 8]: 14.7 µM; SI 1B1:1A1 [2]: 70.5
N#CCOc1nc(-c2ccc(F)cc2)nc2ccccc12 [GL-718]	0.015 µM	0.85 µM	–
N#CCOc1nc(-c2ccc(Cl)cc2)nc2ccccc12 [GL643]	0.125 µM	0.0001 µM	–
COc1ccc(/C=C/C(=O)c2cc(OC)c(OC)c(OC)c2)c(OC)c1 [GL-714]	5.2 µM	1.1 µM	–
O=c1[nH]c(-c2ccc3ccccc3n2)nc2ccccc12 [GL651]	1.1 µM	0.0028 µM	–
N#CCOc1nc(-c2cccc(C(F)(F)F)c2)nc2ccccc12 [GL-729]	0.05 µM	–	–
COc1cc(/C=C/c2ccc(OC)cc2OC)cc(OC)c1 [TMS, reference compound]	–	–	IC50 ([4]; Table 1, read-out: CYP1B1 IC50): 0.0083 µM; IC50 [1, 5]: 10 µM; IC50 [1, 6]: > 10 µM
COc1ccc(-c2nc(OC)c3ccccc3n2)cc1 [GL556]	2.59 µM	0.0067 µM	–
C#CCOc1ccc(-c2nc(-c3ccc(C#N)cc3)cs2)cc1 [GL664]	–	–	IC50 [4, 7]: 0.202 µM; IC50 [2, 8]: 0.696 µM; SI 1B1:1A1 [2]: 3.44
O=c1[nH]c(-c2ccc(Cl)cc2)nc2ccccc12 [GL642]	0.085 µM	0.022 µM	–
O=C(NCCCOc1ccc(CCc2ccncn2)cc1)OCCOCCOCCOC(=O)NC12CC3CC(CC(C3)C1)C2 [GL594]	1.1 µM	9.4 µM	–
COc1ccc(/C=C/c2cc[n+](C)cn2)c(OC)c1 [Compound 7]	–	–	activity as CYP1B1 inhibitor, in words [4]: poor activity
N#CCOc1ccc(/C=C/c2ccc(COC#N)cc2COC#N)cc1 [GL652]	1.86 µM	0.019 µM	–
N#CCOc1nc(-c2ccc(F)c(C(F)(F)F)c2)nc2ccccc12 [GL-701]	0.25 µM	–	–
N#CCOc1nc(-c2ccc(OCCCN=[N+]=[N-])cc2)nc2ccccc12 [GL628]	–	0.126 µM	–
COc1cc(-c2nc(OCC#N)c3ccccc3n2)ccc1OCC#N [GL557]	1.72 µM	< 0.0007 µM	–
COc1ccc(-c2nc(OCC#N)c3ccccc3n2)cc1 [GL554]	3.33 µM	0.0035 µM	–
N#Cc1ccc(-c2csc(-c3cccnc3)n2)cc1 [GL656]	–	–	IC50 [4, 7]: 0.391 µM
N#CCOc1ccc(/C=N/c2ccccc2C(N)=O)cc1 [GL542]	> 10 µM	0.051 µM	–

SMILES	IC50 ([2]; Table 3, read-out: IC50 1A1)	IC50 ([4]; Table 3, read-out: IC50 1B1)	other results
COc1nc(-c2ccc(OCC#N)cc2)nc2ccccc12 [GL558]	2.46 µM	< 0.0007 µM	–
N#CCOc1ccc(-c2nc3ccccc3c(=O)[nH]2)c(OCC#N)c1 [GL545]	4.4 µM	–	–
COc1cc(OCC#N)ccc1-c1nc2ccccc2c(=O)[nH]1 [GL521]	1.23 µM and 1.18 µM	0.00051 µM and 0.0013 µM	IC50 [3]: > 10 µM
N#CCOc1ccc(-c2nc(OCCCCCCN=[N+]=[N-])c3ccccc3n2)cc1 [GL565]	1.87 µM	< 0.0025 µM	IC50 [3]: > 10 µM
O=c1[nH]c(-c2ccc(F)c(C(F)(F)F)c2)nc2ccccc12 [GL-700]	2.3 µM	0.041 µM	–
c1ccc2nc(-c3nc4ccccc4[nH]3)ccc2c1 [GL-707]	0.76 µM	0.044 µM	–
COc1cc(-c2nc3ccccc3c(=O)[nH]2)ccc1OCC#N [GL522]	2.27 µM and 0.97 µM	–	IC50 [3]: > 10 µM; HEK cell viability % at 10 μM ([1]; Table 3, HEK): 80.6%
COc1ccc(-c2nc(-c3ccc(O)cc3)cs2)c(OC)c1 [GL673]	–	–	IC50 [4, 7]: 0.101 µM
Fc1ccc(-c2nc3ccccc3[nH]2)cc1C(F)(F)F [GL-706]	0.32 µM	0.085 µM	–
N#Cc1ccc(-c2csc(-c3ccc(O)cc3)n2)cc1 [GL649]	–	–	IC50 [4, 7]: 0.931 µM; IC50 [2, 8]: 16.4 µM; SI 1B1:1A1 [2]: 17.6
N#CCOc1ccc(-c2nc(OCCCN)c3ccccc3n2)cc1 [GL572]	2.12 µM	< 0.0025 µM	IC50 [3]: > 10 µM
COc1ccc(/C=C/c2ccccc2)c(OC)c1 [Compound 1]	–	–	activity as CYP1B1 inhibitor, in words [4]: poor activity
COc1ccc(/C=C/c2cc[n+](C)cn2)c(OC)c1.[I-] [GL461]	> 10 µM	13.9 µM	HEK cell viability % at 10 μM ([1]; Table 3, HEK): 103%
N#CCOc1ccc(-c2nc(OCCCCCCBr)c3ccccc3n2)cc1 [GL564]	1.94 µM	< 0.0025 µM	IC50 [3]: > 10 µM
N#CCOc1ccc(-c2nc3ccccc3[nH]2)cc1 [GL509]	5.5 µM and 3.5 µM	–	IC50 [3]: 8.36 µM; HEK cell viability % at 10 μM ([1]; Table 3, HEK): 75%
Oc1nc(-c2ccc(F)cc2)nc2ccccc12 [GL-717]	3.9 µM	1.9 µM	–
N#CCOc1ccc(/C=C/c2ccncn2)cc1 [Compound 13]	–	–	activity as CYP1B1 inhibitor, in words [4]: potent
O=c1[nH]c(-c2cccc(C(F)(F)F)c2)nc2ccccc12 [GL-728]	–	0.2 µM	–
N#CCOc1ccc(-c2nc(OCC#N)c3ccccc3n2)cc1 [GL- 561]	3.6 µM	–	–
COc1ccc(-c2nc3ccccc3c(=O)[nH]2)cc1 [GL553]	4.76 µM	0.0038 µM	–
N#CCOc1ccc(-c2nc(-c3cccnc3)cs2)cc1 [GL641]	–	–	IC50 [4, 7]: 0.000381 µM; IC50 [2, 8]: 2.61 µM; SI 1B1:1A1 [2]: 6833
[N-]=[N+]=NCCCOc1ccc(-c2nc3ccccc3c(=O)[nH]2)cc1 [GL627]	–	0.0061 µM	–
Fc1ccc(-c2nc3ccccc3[nH]2)cc1 [GL-719]	5.2 µM	3 µM	–
O=c1[nH]c(-c2ccccn2)nc2ccccc12 [GL518]	–	2.44 µM	–
CC(C)(C)OC(=O)NCCCOc1nc(-c2ccc(OCC#N)cc2)nc2ccccc12 [GL571]	1.28 µM	< 0.0025 µM	IC50 [3]: > 10 µM
COc1cc(-c2nc3ccc(C#Cc4ccccc4)cc3c(=O)[nH]2)ccc1OCC#N [GL552]	> 10 µM	0.0018 µM	–
COc1ccc(/C=C/c2ccncc2)c(OC)c1 [Compound 6]	–	–	activity as CYP1B1 inhibitor, in words [4]: potent
